Source: patent US4430342A, “N-Acyl-3-[4-(benzoylalkyl)piperazin-1-yl]-sydnonimine compound, process for prodction thereof, and use thereof” (Hidaka; Hiroyoshi, priority 1981, dated 1984)
Values after ≈ are worked out from the molar mass of the structure shown. Where a name gives a salt, the structure may show the parent alone. Read-outs that look alike come from different tables or passages of the source. Values belong to the compound of their own block, whether it stands above or below them.

Key:
[1] = tested on: human platelet aggregation; test: collagen-induced human platelet aggregation inhibiting activity, in vitro; type: cell-based; conditions: human platelets, read-out: Platelet aggregation inhibiting activity (50% inhibition)
From the text: (§1) Table 1 summarizes the results of in vitro tests in which the human platelet aggregation inyibitory activity of the 3-[4-(benzoylalkyl)piperazin-1-yl]sydnonimines of formula (2) and their relaxing activity on the extracted mesenteric artery of a rabbit were examined.
(§2) The mesenteric artery relaxing activity is shown by the […] (μM) of a drug required to induce 50% of the maximum relaxation, and the platelet aggregation inhibiting activity, by the concentration (μM) of a drug required to inhibit collagen-induced platelet aggregation to an extent of 50%.

[2] = tested on: extracted mesenteric artery of a rabbit; test: mesenteric artery relaxing activity, in vitro (extracted artery); conditions: Oryctolagus cuniculus, read-out: Mesenteric artery relaxing activity (50% of the maximum relaxation)
From the text: as §1, §2

cerebral cortex = test: blood flow in the cerebral cortex (cross thermocouple method); type: in vivo, rabbit; conditions: 0.5 mg/kg via retroauricular vein
Protocol: Male rabbits having a body weight of about 3 kg, five per group, were used. Under sodium pentobarbital anesthesia, a tracheal cannula was inserted into each rabbits, and under artificial respiration, 2 mg of gallamine triethiodide was intravenously injected to immobilize the animals. The animals were each fixed to a brain stereotaxic apparatus (Todai Noken type). An element of the double needle type (WN-301, manufactured by Unique Medical Co.) was inserted into the frontal contex through a hole provided by a dental drill, and variations in potential were recorded. After the blood flow was stabilized, the test drug and a control drug were each administered through a cannula inserted into the retroauricular vein of the right ear. The percent increase in the blood flow was calculated by taking the blood flow at death as 0 and the blood flow before drug administration as 100%. When the compound A (0.5 mg/kg) was administered as the test drug, the blood flow increased by 10 to 20%. But when the control drug, morsydmine, (0.5 mg/kg) was administered, no increase in the blood flow was noted.

[3] = tested on: extracted heart of a guinea pig; test: coronary blood flow, Langendorf's method, extracted heart; conditions: 0.1 ml of 10^-4 g/ml solution injected
Protocol: The increase or decrease of the coronary blood flow was examined by the Langendorf's method using the extracted heart of a guinea pig. […] On the other hand, when 0.1 ml of morsydmine (10^-4 g/ml solution) was injected, no increase in the coronary blood flow was observed.

amygdaloid nucleus = test: local cerebral blood flow, amygdaloid nucleus (hydrogen gas clearance method); type: in vivo, rabbit; conditions: 0.5 mg/kg i.v.; until 1 hour after administration; based on blood flow before administration
Protocol: (a) Activity on the hippocampus and amygdaloid nucleus (by the hydrogen gas clearance method) Rabbits having a body weight of about 3 kg, five per group, were used. A tracheal cannula was inserted into each rabbit under sodium pentobarbital anesthesia, and under artificial respiration, gallamine triethiodide was intravenously administered in a dose of 2 mg/kg to immobilize it. The animal was then fixed to a brain stereotaxic apparatus (Todai Noken type). Gallamine triethiodide was also intramuscularly administered in a dose of 3 mg/kg every one hour.
The local cerebral blood flow was measured by the hydrogen gas clearance method (UH meter, PHG-201, manufactured by Unique Medical Co., Ltd.). Platinum electrodes having a diameter of 300 μm and coated with an epoxy resin were inserted in the hippocampus (P:4, L:5, H:+5) and the amygdaloid nucleus (A:2, L:6, H:-6) in accordance with the brain atlas of Sawyer et al. An indifferent electrode was placed under the skin of the head and fixed there. […] The resulting curve was plotted semilogarithmically, and the half-time period (T 1/2) was determined by the initial slope method. The blood flow was calculated from the following equation.
The blood flow was measured every thirty minutes. […]

[4] = solubility in water, dilute hydrochloric acid and Carmody's buffer by absorbance at 317 nm; type: physicochemical; conditions: 25° C.
Protocol: The solubility of the N-ethoxycarbonyl-3-[4-(4-benzoylbutyl)piperazin-1-yl]sydnonimine obtained in Example 1 in water dilute hydrochloric acid and the Carmody's buffer was measured by the absorbance of the solution at 317 nm.

[5] = acute toxicity in male dd-strain mice; conditions: mouse, in vivo
Protocol: The acute toxicity of the in vivo active type of this typical compound as a prodrug was tested by using male dd-strain mice (body weight 16 to 20 g).

[6] = water solubility of the salts; type: physicochemical

SMILES: CCOC(=O)[N-]c1c[n+](N2CCOCC2)no1 [morsydmine]
- blood flow in the cerebral cortex, result in words (cerebral cortex): no increase
- coronary blood flow, result in words [3]: no increase
- increase of local cerebral blood flow at the amygdaloid nucleus (amygdaloid nucleus): about 15%

SMILES: CCOC(=O)[N-]c1c[n+](N2CCN(CCCCC(=O)c3ccccc3)CC2)no1 [Compound A, N-carboethoxy-3-[4-(4-benzoylbutyl)piperazin-1-yl]sydnonimine]
- solubility ([4]; 0.001 n hydrochloric acid, 0.001 N (pH 3), read-out: Solubility in dilute hydrochloric acid): 2300 µg/mL (≈ 5.73 mM)
- solubility ([4]; 0.01 n hydrochloric acid, 0.01 N (pH 2), read-out: Solubility in dilute hydrochloric acid): 6300 µg/mL (≈ 15.7 mM)
- solubility ([4]; 0.1 n hydrochloric acid, 0.1 N (pH 1), read-out: Solubility in dilute hydrochloric acid): 10400 µg/mL (≈ 25.9 mM)
- solubility ([4]; carmody's buffer, pH 2, read-out: Solubility in Carmody's buffer): 15600 µg/mL (≈ 38.9 mM)
- solubility ([4]; carmody's buffer, pH 3, read-out: Solubility in Carmody's buffer): 9300 µg/mL (≈ 23.2 mM)
- solubility ([4]; carmody's buffer, pH 4, read-out: Solubility in Carmody's buffer): 4400 µg/mL (≈ 11 mM)
- solubility ([4]; carmody's buffer, pH 5, read-out: Solubility in Carmody's buffer): 1000 µg/mL (≈ 2.49 mM)
- solubility ([4]; carmody's buffer, pH 6, read-out: Solubility in Carmody's buffer): 400 µg/mL (≈ 0.996 mM)
- solubility ([4]; carmody's buffer, pH 7, read-out: Solubility in Carmody's buffer): 100 µg/mL (≈ 0.249 mM)
- solubility ([4]; water, read-out: Solubility in water): 10 µg/mL (≈ 0.0249 mM)

SMILES: CCOC(=O)[N-]c1c[n+](N2CCN(CCCCC(=O)c3ccccc3)CC2)no1 [Compound A]
- activation at 100 µg/mL ([3]; Cavia porcellus, read-out: increase in the coronary blood flow): 14%
- LD50 ([5]; intravenous administration): 91 mg/kg
- LD50 ([5]; oral administration): 750 mg/kg
- LD50 ([5]; sc, subcutaneous administration): 350 mg/kg

SMILES: CCOC(=O)[N-]c1c[n+](N2CCN(CCCCC(=O)c3ccccc3)CC2)no1 [Maleate, N-ethoxycarbonyl-3-[4-(4-benzoylbutyl)-piperazin-1-yl]sydnonimine]
- Solubility in water [6]: 0.94%

SMILES: CCOC(=O)[N-]c1c[n+](N2CCN(CCCCC(=O)c3ccccc3)CC2)no1 [Oxalate, N-ethoxycarbonyl-3-[4-(4-benzoylbutyl)-piperazin-1-yl]sydnonimine]
- Solubility in water [6]: 0.46%

SMILES: CCOC(=O)[N-]c1c[n+](N2CCN(CCCCC(=O)c3ccccc3)CC2)no1 [Nitrate, N-ethoxycarbonyl-3-[4-(4-benzoylbutyl)-piperazin-1-yl]sydnonimine]
- Solubility in water [6]: 0.43%

SMILES: CCOC(=O)[N-]c1c[n+](N2CCN(CCCCC(=O)c3ccccc3)CC2)no1 [Hydrochloride, N-ethoxycarbonyl-3-[4-(4-benzoylbutyl)-piperazin-1-yl]sydnonimine]
- Solubility in water [6]: 0.89%

The next lines start with the values.

- IC50 [1]: 0.94 µM
- EC50 [2]: 120 nM
SMILES: [NH-]c1c[n+](N2CCN(CCCCCCC(=O)c3ccccc3)CC2)no1 [R = H, n = 5]

- IC50 [1]: 0.028 µM
- EC50 [2]: 58 nM
SMILES: [NH-]c1c[n+](N2CCN(CCCCCCCCC(=O)c3ccccc3)CC2)no1 [R = H, n = 7, 3-[4-(8-benzoyloctyl)piperazin-1-yl]sydnonimine dihydrochloride]

- IC50 [1]: 0.14 µM
- EC50 [2]: 160 nM
SMILES: [NH-]c1c[n+](N2CCN(CC(=O)c3ccccc3)CC2)no1 [R = H, n = 0, 3-[4-(benzoylmethyl)piperazin-1-yl]sydnonimine dihydrochloride]

- IC50 [1]: 6.3 µM
- EC50 [2]: 3000 nM
SMILES: [NH-]c1c[n+](N2CCN(CCCCCC(=O)c3ccccc3)CC2)no1 [R = H, n = 4]

- IC50 [1]: 3.4 µM
- EC50 [2]: 200 nM
SMILES: [NH-]c1c[n+](N2CCN(CCCCC(=O)c3ccccc3)CC2)no1 [R = H, n = 3, 3-[4-(4-benzoylbutyl)piperazin-1-yl]sydnonimine dihydrochloride]

- IC50 [1]: 11 µM
SMILES: CC(C)CC(CCCN1CCN([n+]2cc([NH-])on2)CC1)C(=O)c1ccccc1 (stereo not shown) [R = iso-C4 H9, n = 3, 3-[4-(benzoyl-6-methylheptyl)piperazin-1-yl]sydnonimine dihydrochloride]

- IC50 [1]: 5.4 µM
- EC50 [2]: 2300 nM
SMILES: [NH-]c1c[n+](N2CCN(CCCC(=O)c3ccccc3)CC2)no1 [R = H, n = 2]
